Earlier results, collected in patent publication US20200323830A1, “TREATMENT OF VIRAL HEMORRHAGIC FEVERS WITH ETORICOXIB” (priority 2019, published 2020).
Where two headings read alike, the source gives them in different places.

Columns and labels:
[1] = chronic therapy, 4 grams daily
[2] = dengue infection
[3] = dose of more than 60 mg/kg/day before admission, dengue subjects
[4] = intake within 24 h, dengue subjects
[5] = monkeys; similar to diclofenac and ibuprofen
[6] = humans; similar to diclofenac and ibuprofen
[7] = biological target: T1, COX-1 activity in circulating platelets (Homo sapiens, UniProt P23219); conditions: therapeutic doses, healthy subjects
T1 construct: COX-1 activity in circulating platelets; endogenous in cells; host or cells: circulating platelets of healthy subjects

[8] = versus placebo, acute pain after surgery
[9] = system: COX-2 versus COX-1
[10] = system: platelet aggregation or bleeding time
[11] = in vivo
[12] = oral, once daily
[13] = not given; remark: listed apart in the source
[14] = for incidence of joint bleeding: 90 mg, hemophilic arthropathy
[15] = chronic use for up to one year

T1 sequence (P23219 24-599): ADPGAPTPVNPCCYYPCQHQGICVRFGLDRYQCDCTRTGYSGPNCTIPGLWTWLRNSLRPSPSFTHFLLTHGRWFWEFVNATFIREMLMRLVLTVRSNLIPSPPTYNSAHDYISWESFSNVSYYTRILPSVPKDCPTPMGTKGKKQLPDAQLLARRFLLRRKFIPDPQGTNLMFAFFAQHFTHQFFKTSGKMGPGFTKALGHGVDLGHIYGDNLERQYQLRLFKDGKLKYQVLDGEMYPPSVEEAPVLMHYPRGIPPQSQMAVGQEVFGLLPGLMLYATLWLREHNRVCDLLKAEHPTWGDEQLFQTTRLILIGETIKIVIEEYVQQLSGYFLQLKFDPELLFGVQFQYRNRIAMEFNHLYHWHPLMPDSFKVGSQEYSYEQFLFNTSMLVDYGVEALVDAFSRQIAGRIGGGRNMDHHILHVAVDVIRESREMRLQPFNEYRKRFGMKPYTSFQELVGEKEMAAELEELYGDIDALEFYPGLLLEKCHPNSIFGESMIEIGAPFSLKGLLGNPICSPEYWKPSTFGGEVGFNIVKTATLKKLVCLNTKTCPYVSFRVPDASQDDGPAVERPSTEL

CC(=O)Nc1ccc(O)cc1 [acetaminophen/paracetamol]
persons with peak serum aminotransferase values ≥3 times the upper normal limit [1]: 39%
share of all cases of acute liver failure (academic centers of the Acute Liver Failure Study Group, 2005): 42%
share of all cases of acute liver failure (population-based, metropolitan Atlanta, 2007): 41%
transaminase elevation ([2]; median daily dose 1.5 g): caused transaminase elevation
pain scores, analgesic intake, length of stay, duration of fever ([2]; versus placebo): not significantly different from placebo
occurrence of hepatitis [3]: significantly associated with the occurrence of hepatitis
transaminase elevation [4]: significantly associated with transaminase elevation

CS(=O)(=O)c1ccc(C2=C(c3ccccc3)C(=O)OC2)cc1 [rofecoxib]
antipyretic activity [5]: antipyretic activity
antipyretic activity [6]: antipyretic activity

Cc1ccc(-c2ncc(Cl)cc2-c2ccc(S(C)(=O)=O)cc2)cn1 [etoricoxib, 5-chloro-2-(6-methylpyridin-3-yl)-3-[4-(trideuteriomethylsulfonyl)phenyl]pyridine]
effect on COX-1 activity in circulating platelets [7]: does not affect COX-1 activity in circulating platelets
fever AEs [8]: fewer fever AEs than subjects on placebo
COX-2 versus COX-1 selectivity [9]: 106 fold
effect on platelet aggregation or bleeding time ([10]; doses up to 500 mg): does not affect platelet aggregation or bleeding time
effects on bleeding time or platelet aggregation ([10]; ex vivo whole-blood assays after multiple oral doses): no important effects on bleeding time or platelet aggregation
GI tolerability and safety events [11]: significant improvements
half-life [12]: approximately 22 hours
median onset of action ([13]; acute pain settings): 24 min
risk of bleeding ([13]; acute pain studies): not associated with an increased risk of bleeding
duration of sustained efficacy ([13]; single dose): 24 h
incidence of joint bleeding ([14]; 6-month extension): 78.9%
incidence of joint bleeding ([14]; 6-week portion): 66.7%
serious AEs ([14]; placebo-controlled portion, two events, both on etoricoxib): 3.9%
subjects with elevated ALT or AST (≥3 times the upper limit of normal) [15]: 1%
